The values that follow come from patent publication US20220266206A1, “FORMULATION AND PROCESS FOR MANUFACTURING A HEAT STABLE OIL-IN-WATER EMULSION FOR CANNABIS BEVERAGES IN PLASTIC BOTTLES” (Gaia Botanicals LLC DBA Bluebird Botanicals, priority 2021, published 2022).

The structures appear in SMILES notation.

The nature of this data set: Solubility of CBD in MCT oil (fractionated coconut oil). The data set is classed as physicochemical. The following applies: carrier oil: fractionated coconut oil (MCT oil). An excerpt: In first mixing step 100, cannabinoid extract may be advantageously dissolved into a carrier oil to create oil phase 150. An aspect of the current invention is the use of a carrier oil, which overcomes the issues of aqueous solubility for the cannabinoid extract, particularly CBD. In its pure form, CBD is a non-polar crystalline solid which in the absence of an oil or alcohol will not readily dissolve to form a stable emulsion with the gum blend. By dissolving the CBD in a carrier oil in first mixing step 100, the CBD will be readily dissolved into the oil which increases its suitability for emulsion formation. In an embodiment of the invention, CBD is added to fractionated coconut oil (MCT oil) in first mixing step 100 using an immersion blender to thoroughly mix, then the mixture is transferred to a magnetic stir plate to allow for slow gentle mixing of the oil until the CBD is completely dissolved. First mixing step 100 can comprise immersion blending at a high shear rate followed by a slower mixing utilizing a stir bar. Heat may be used to speed the process but may result on oxidation of the CBD as well as result in off-flavors. MCT oil offers several advantages over other possible carrier oils as it is both colorless and nearly flavorless, and it readily dissolves CBD at concentrations as high as 30%. […]

On to `C=C(C)[C@@H]1CCC(C)=C[C@H]1c1c(O)cc(CCCCC)cc1O` [CBD, cannabidiol], for which the “concentration of CBD readily dissolved in MCT oil” value was at most 30%.
